Patent publication US12584906B2, “Coating agent for inducing differentiation of pluripotent stem cells into brain microvascular endothelium-like cells and use thereof” (PUBLIC UNIVERSITY CORPORATION NAGOYA CITY UNIVERSITY, priority 2020, dated 2026)
Blank lines part the entries; values can stand above or below the substance they belong to.

Columns and labels:
[1] = test system: iBMECs derived from 610B1 strain; experiment: Relative TEER values of iBMECs induced and differentiated on each coating layer (day 10 of differentiation); type: cell-based, human; settings: for TEER value compared with iBMECs induced and differentiated on Matrigel: coating 1 μg/cm^2, FIG. 2
Description: A coating layer was formed using each of the above-described coating agents. Matrigel was diluted 30-fold with a maintenance medium for human iPS cells on ice, poured onto a well plate, and allowed to stand at 37° C. for 30 minutes or longer to form a coating layer. FBN, VTN-N, LN221F, LN411F, or LN511F was diluted with PBS so as to be 1 μg/cm^2, poured onto a well plate, and allowed to stand at 37° C. for 1 hour to 2 hours to form a coating layer. In addition, a mixture of Fibronectin and Collagen type IV was diluted with PBS so as to be 100 μg/mL and 400 μg/mL, respectively, poured onto a Transwell insert, and allowed to stand at 37° C. for 2 hours or longer to form a coating layer.
FIG. 1 is a scheme illustrating a protocol for differentiating human iPS cells into iBMECs. […] The differentiation induction was started in a state in which at the time of passage, the cells were seeded on a culture dish coated with each coating agent and cultured in StemSure hPSC medium containing […] FGF2 until the proportion of undifferentiated colonies reached about 60 to 70% (day 0 of differentiation). […]
TEER values of iBMECs (on day 10 of differentiation) derived from 610B1 strain, which cells had been induced and differentiated on Matrigel or FBN, VTN-N, LN221F, LN411F, or LN511F, were measured. The number of samples was 3, and relative TEER values of iBMECs induced and differentiated on FBN, VTN-N, LN221F, LN411F, or LN511F were determined based on the TEER values of iBMECs induced and differentiated on Matrigel (hereinafter, also referred to as “Matrigel-iBMECs”). In addition, for each of 610B1 strain or 648A1 strain, the TEER values of Matrigel-iBMECs or iBMECs induced and differentiated on LN221F (hereinafter, also referred to as “LN221F-iBMECs”) were measured from day 1 after seeding (day 9 of differentiation) to day 10 after seeding (day 18 of differentiation). The number of samples was set to 6, and the time-course change of the TEER values was determined. The TEER values were measured using a Millicell ERS-2 (chopstick type) according to the attached instructions. […]

[2] = test system: iBMECs derived from 610B1 strain; experiment: Time-course change in TEER values, 610B1 strain; type: cell-based, human; settings: FIG. 3
Description: (§1) A coating layer was formed using each of the above-described coating agents. Matrigel was diluted 30-fold with a maintenance medium for human iPS cells on ice, poured onto a well plate, and allowed to stand at 37° C. for 30 minutes or longer to form a coating layer. FBN, VTN-N, LN221F, LN411F, or LN511F was diluted with PBS so as to be 1 μg/cm^2, poured onto a well plate, and allowed to stand at 37° C. for 1 hour to 2 hours to form a coating layer. In addition, a mixture of Fibronectin and Collagen type IV was diluted with PBS so as to be 100 μg/mL and 400 μg/mL, respectively, poured onto a Transwell insert, and allowed to stand at 37° C. for 2 hours or longer to form a coating layer. […]
(§2) TEER values of iBMECs (on day 10 of differentiation) derived from 610B1 strain, which cells had been induced and differentiated on Matrigel or FBN, VTN-N, LN221F, LN411F, or LN511F, were measured. The number of samples was 3, and relative TEER values of iBMECs induced and differentiated on FBN, VTN-N, LN221F, LN411F, or LN511F were determined based on the TEER values of iBMECs induced and differentiated on Matrigel (hereinafter, also referred to as “Matrigel-iBMECs”). […] The number of samples was set to 6, and the time-course change of the TEER values was determined. The TEER values were measured using a Millicell ERS-2 (chopstick type) according to the attached instructions. […]

P-gp = molecular target: T1, P-gp (Homo sapiens, UniProt P08183); experiment: Substrate uptake test, P-gp function (rhodamine 123 with or without cyclosporine A); type: cell-based; settings: 10 μM rhodamine 123, 10 μM cyclosporine A, 60 minutes at 37° C., FIG. 9
T1 construct: endogenous in cells; host or cells: Matrigel-iBMECs or LN221F-iBMECs derived from 610B1 strain (iPS cells), day 10 of differentiation
Description: (§3) For functional analysis of P-gp and BCRP as efflux transporters, Matrigel-iBMECs or LN221F-iBMECs (on day 10 of differentiation) derived from 610B1 strain were tested for substrate uptake. As the substrate, rhodamine 123 or Hoechst 33342 was used. The culture medium was removed and the cells on a 96-well plate were pre-incubated in a transport buffer for 15 minutes at 37° C. Note that the number of samples was 6. The cells were incubated, in the presence or absence of 10 μM cyclosporine A (CsA), an inhibitor of P-gp, or 20 μM Ko 143, an inhibitor of BCRP, in a transport buffer containing 10 μM rhodamine 123 or 10 μM Hoechst 33342 for 60 minutes at 37° C. The cells were then washed three times with PBS and lysed in PBS containing 5 w/v % Triton X-100. The fluorescence intensities of rhodamine 123 or Hoechst 33342 were measured with a Synergy HTX multimode plate reader and analyzed by Gen5 data analysis software.

[3] = test system: iBMECs derived from 648A1 strain; experiment: Test for permeability of FD4 or LY, 648A1 strain; type: cell-based, human; settings: 60 minutes, day 10 of differentiation
Description: (§4) FD4 or LY permeability was tested on Matrigel-iBMECs and LN221F-iBMECs derived from each of 610B1 or 648A1 strain. The number of samples was 6. On day 10 of differentiation, the culture medium was replaced with a transport buffer (HBSS containing 10 mM HEPES solution), and the cells were cultured at 37° C. for 20 minutes. The transport buffer containing 1 mg/mL FD4 or 300 μM LY was added to the apical side. After incubation at 37° C. for 60 minutes, 100 μL of the solution was collected from the basolateral side. The volume of transport buffer was 300 μL on the apical side and 800 μL on the basal side. The fluorescence intensity of FD4 or LY was measured with a Synergy HTX multimode plate reader and analyzed by Gen5 data analysis software.

BCRP = molecular target: T2, BCRP (Homo sapiens, UniProt Q9UNQ0); experiment: Substrate uptake test, BCRP function (Hoechst 33342 with or without Ko 143); type: cell-based; settings: 10 μM Hoechst 33342, 20 μM Ko 143, 60 minutes at 37° C., FIG. 10
T2 construct: endogenous in cells; host or cells: Matrigel-iBMECs or LN221F-iBMECs derived from 610B1 strain (iPS cells), day 10 of differentiation
T2 sequence (Q9UNQ0 1-655): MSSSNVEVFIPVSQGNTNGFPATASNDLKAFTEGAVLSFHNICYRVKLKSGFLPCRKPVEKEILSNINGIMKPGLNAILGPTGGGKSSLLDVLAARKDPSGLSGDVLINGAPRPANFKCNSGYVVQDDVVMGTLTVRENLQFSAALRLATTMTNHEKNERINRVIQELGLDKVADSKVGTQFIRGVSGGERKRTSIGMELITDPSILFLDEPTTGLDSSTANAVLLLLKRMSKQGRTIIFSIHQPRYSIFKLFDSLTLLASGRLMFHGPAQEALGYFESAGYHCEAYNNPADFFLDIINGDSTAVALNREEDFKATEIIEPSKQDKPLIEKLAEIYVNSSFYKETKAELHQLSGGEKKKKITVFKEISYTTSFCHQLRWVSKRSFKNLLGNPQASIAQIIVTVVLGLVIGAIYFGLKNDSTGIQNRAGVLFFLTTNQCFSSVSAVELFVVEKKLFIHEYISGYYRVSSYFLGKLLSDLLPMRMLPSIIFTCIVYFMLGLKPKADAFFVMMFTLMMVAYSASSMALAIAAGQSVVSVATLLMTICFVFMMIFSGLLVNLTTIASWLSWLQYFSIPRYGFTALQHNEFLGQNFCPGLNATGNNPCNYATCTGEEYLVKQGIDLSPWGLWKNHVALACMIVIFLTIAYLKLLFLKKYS
Description: as §3

[4] = test system: iBMECs derived from 648A1 strain; experiment: Time-course change in TEER values, 648A1 strain; type: cell-based, human; settings: FIG. 4
Description: as §1, §2

[5] = test system: iBMECs derived from 610B1 strain; experiment: Protein expression of BMEC markers by immunostaining; type: cell-based, human; settings: CDH5, P-gp, BCRP, ZO-1, Occludin, Claudin 5; day 10 of differentiation, FIG. 8
Description: Matrigel-iBMECs or LN221F-iBMECs (on day 10 of differentiation) derived from 610B1 strain were analyzed by immunostaining in order to analyze the expression levels and localizations of BMEC marker proteins. For Zonula Occludens-1 (ZO-1) and Occludin, the cells on a 96-well plate were fixed in 4 w/v % paraformaldehyde for 15 minutes at room temperature, washed twice with glycine-containing PBS, and then permeabilized with 0.1 w/v % Triton X-100-containing PBS for 25 minutes at room temperature. After blocking for 20 min at room temperature with 5% donkey serum, each primary antibody was used for reaction for 2 hours at room temperature. After washed three times with PBS, the cells were reacted with the secondary antibody, which had been diluted 200-fold, for 60 minutes at room temperature. At this time, 1 μg/mL DAPI as a nuclear staining reagent was mixed in the reaction at the same time. Thereafter, the cells were washed three times with PBS, and were analyzed with an Operetta high content imaging system. […]

[6] = test system: iBMECs derived from 610B1 strain; experiment: Test for permeability of FD4 or LY, 610B1 strain; type: cell-based, human; settings: 60 minutes, day 10 of differentiation
Description: as §4

[7] = test system: iBMECs derived from strain 610B1; experiment: Analysis of expression levels of BMEC marker genes by RT-q PCR; type: cell-based, human; settings: CDHS, MDR1, BCRP, ZO-1, Occludin, GLUT1, LAT1; day 10 of differentiation, corrected with HPRT1, FIG. 7
Description: Extraction was performed according to the attached instructions of Agencourt (registered trademark) RNAdvance Tissue Kit.
Complementary DNA (cDNA) was synthesized using ReverTra Ace (registered trademark) qPCR RT Master Mix according to the attached instructions.
The levels of gene expression in Matrigel-iBMECs or LN221F-iBMECs derived from strain 610B1 (on day 10 of differentiation) or human-derived primary BMECs (hereinafter, also referred to as “hBMECs”) were analyzed by RT-q PCR. The number of samples for Matrigel-iBMECs or LN221F-iBMECs was 3, and the number of samples for hBMECs was 1. RT-q PCR was performed with KAPA SYBR Fast qPCR Kit while using cDNA as a template according to the attached instructions. The results obtained were corrected using HPRT1 as an internal control. The relative expression levels of mRNA in LN221F-iBMECs or hBMECs were determined based on the expression levels of mRNA in Matrigel-iBMECs. […]

T1 sequence (P08183 whole entry): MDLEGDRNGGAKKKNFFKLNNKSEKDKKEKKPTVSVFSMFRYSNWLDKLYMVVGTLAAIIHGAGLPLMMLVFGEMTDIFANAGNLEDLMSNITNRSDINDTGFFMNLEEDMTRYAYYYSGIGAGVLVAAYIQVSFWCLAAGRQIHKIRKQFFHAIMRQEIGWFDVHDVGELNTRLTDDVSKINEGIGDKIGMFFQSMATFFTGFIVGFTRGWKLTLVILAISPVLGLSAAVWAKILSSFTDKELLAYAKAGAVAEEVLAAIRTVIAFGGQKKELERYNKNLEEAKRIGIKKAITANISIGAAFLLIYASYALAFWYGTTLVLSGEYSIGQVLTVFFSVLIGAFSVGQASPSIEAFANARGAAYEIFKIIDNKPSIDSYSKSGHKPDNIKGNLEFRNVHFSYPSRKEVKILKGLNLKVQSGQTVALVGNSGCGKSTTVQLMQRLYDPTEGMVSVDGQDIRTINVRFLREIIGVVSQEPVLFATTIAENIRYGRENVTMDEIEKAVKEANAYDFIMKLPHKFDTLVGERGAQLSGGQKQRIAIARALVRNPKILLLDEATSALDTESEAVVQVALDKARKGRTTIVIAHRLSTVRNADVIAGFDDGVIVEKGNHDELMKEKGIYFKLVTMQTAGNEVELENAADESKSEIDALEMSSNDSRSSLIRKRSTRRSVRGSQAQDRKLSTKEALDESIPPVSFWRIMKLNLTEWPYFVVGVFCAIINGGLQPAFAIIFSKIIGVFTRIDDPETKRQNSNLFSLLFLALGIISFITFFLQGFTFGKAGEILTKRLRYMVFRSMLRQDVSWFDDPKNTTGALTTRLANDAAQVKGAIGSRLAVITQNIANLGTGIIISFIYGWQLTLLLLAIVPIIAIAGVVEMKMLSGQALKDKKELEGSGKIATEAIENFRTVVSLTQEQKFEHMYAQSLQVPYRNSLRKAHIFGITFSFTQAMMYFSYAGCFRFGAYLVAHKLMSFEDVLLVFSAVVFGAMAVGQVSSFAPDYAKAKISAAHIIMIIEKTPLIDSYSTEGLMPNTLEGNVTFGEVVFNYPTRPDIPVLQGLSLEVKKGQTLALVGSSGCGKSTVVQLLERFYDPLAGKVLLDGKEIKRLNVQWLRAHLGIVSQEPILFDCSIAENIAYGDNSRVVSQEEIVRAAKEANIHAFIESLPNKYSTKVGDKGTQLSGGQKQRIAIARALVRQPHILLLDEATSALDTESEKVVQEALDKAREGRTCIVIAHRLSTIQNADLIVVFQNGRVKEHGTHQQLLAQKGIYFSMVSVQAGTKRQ

Substance: N-terminal Vitronectin [VTN-N]
TEER value compared with iBMECs induced and differentiated on Matrigel [1]: higher TEER value

accumulation of substrate in the presence of the inhibitor versus absence (P-gp function) (P-gp): larger
accumulation of substrate in the presence of the inhibitor versus absence (BCRP function) (BCRP): larger
Substance: Laminin-221 fragment [LN221F]
TEER value compared with Matrigel-iBMECs over a long period of time ([2]; day 1 to day 10 after seeding): higher TEER value
TEER value ([2]; over a long period of time): ≥ 1000 Ω×cm^2
permeability coefficient of LY compared with Matrigel-iBMECs ([3]; 300 μM LY apical, FIG. 6): lower permeability coefficient
permeability coefficient of FD4 compared with Matrigel-iBMECs ([3]; 1 mg/mL FD4 apical, FIG. 5): lower permeability coefficient
TEER value compared with Matrigel-iBMECs over a long period of time ([4]; day 1 to day 10 after seeding): higher TEER value
TEER value ([4]; over a long period of time): ≥ 1000 Ω×cm^2
protein expression levels and localizations of BMEC markers compared with Matrigel-iBMECs [5]: almost equivalent
permeability coefficient of LY compared with Matrigel-iBMECs ([6]; 300 μM LY apical, FIG. 6): lower permeability coefficient
permeability coefficient of FD4 compared with Matrigel-iBMECs ([6]; 1 mg/mL FD4 apical, FIG. 5): lower permeability coefficient
mRNA expression level of BMEC markers compared with Matrigel-iBMECs [7]: almost equivalent
relative TEER value (Matrigel-iBMECs set to 1.0) ([1]; FIG. 2): about 2 times
TEER value compared with iBMECs induced and differentiated on Matrigel [1]: higher TEER value
